This is an account of results in patent publication US20050084490A1, “Boroproline compound combination therapy” (Point Therapeutics, Inc., priority 2002, published 2005).

In assay [1] the test system is cytokine and chemokine genes. In words: Cytokine and chemokine gene expression (Affymetrix GeneChips) in lymph nodes and WEHI 164 tumors. The class given is in vivo, mice. Conditions: 5 μg twice daily. How it is done: (§1) Mice were inoculated with WEHI 164 cells, and starting 2 days later, administered (twice daily) a 5 μg dose of PT-100 or saline (control). RNA extracted from lymph nodes and tumors 2 hours after the first dose of PT-100 on day 4 after tumor inoculation was processed, labeled and hybridized to Affymetrix GeneChips according to the manufacturer's instructions. The log ratio of expression values (PT-100 treated:saline treatment) has been plotted on the ordinates for the cytokine and chemokine genes indicated on the abscissae. Zero values indicate that gene expression was either undetectable or unaffected by PT-100 treatment.
as §1, with “tumors 30 minutes or” for “tumors”, “ratios for” for “ratio of”, “have” for “has”, “cytokine” for “cytokine and chemokine”, “treatment. […]” for “treatment.”

For assay [2], the system named is WEHI 164 tumor cells. Description: WEHI 164 tumor growth and rejection in euthymic and athymic BALB/c mice. Conditions: 5 μg dose; for tumor growth (tumor volume): day 2 until day 20 after tumor inoculation. The class given is in vivo. The procedure:
Normal euthymic BALB/c mice (+/+) or athymic BALB/c mice that are congenitally deficient in mature T lymphocytes (nu/nu) were inoculated with WEHI 164 tumor cells. The mice were administered a 5 μg dose of PT-100 or saline (control) from day 2 until day 20 after tumor inoculation and tumor volumes ([…]) were measured at the times indicated on the ordinate. Each treatment group contained 10 replicate mice. […] In euthymic mice, however, tumors were completely rejected by day 20 in 40 per cent of the mice treated with PT-100 whereas tumor rejection was not observed in PT-100 treated athymic mice. In the WEHI 164 tumor model, tumor rejection never occurred spontaneously in control mice. […] The data are consistent with a mechanism of action involving increased production of cytokines and chemokines in mice treated with PT-100 as described in Example 1.

Assay [3] concerns Namalwa cells. Description: NOD/SCID mouse model of Burkitt's Non-Hodgkin's Lymphoma. In kind it is in vivo, NOD/SCID mice. Conditions: Namalwa subcutaneous tumors; PT-100 5 μg twice daily day 2 to 20; antibody or normal human IgG 1.5 mg on days 3, 5 and 7. The procedure:
Immunodeficient NOD/SCID mice were inoculated with Namalwa cells derived from a Burkitt's NHL. The human lymphoma cells proliferated in the immunodeficient mice to form solid subcutaneous tumors. Mice were administered 1.5 mg of normal human lgG or 1.5 mg of a human CD20-specific antibody (Rituxan) on each of days 3, 5 and 7 after tumor inoculation. Additional treatments with 5 μg PT-100 administered twice daily from day 2 until day 20 after tumor inoculation were given as indicated in the Figure Legend. The four treatment groups each contained 4 or 5 replicate mice. The data represent mean tumor volumes (±SE). Control treatment with normal human IgG had no effect on tumor growth as compared with saline treatment (data not shown). […] The data support the concept that when combined together, PT-100 and a tumor-specific antibody can have a greater growth inhibitory effect against a tumor than either treatment by itself.

Assay [4] relates to IL-1β, G-CSF and KC. In words: ELISA of IL-1β, G-CSF and KC in serum and spleen extracts of BALB/c mice. The class given is in vivo. Conditions: 20 μg oral, 8 hours after administration. How it is done: BALB/c mice were orally administered 20 μg PT-100 or saline as indicated on the abscissae. Eight hours after PT-100 administration, IL-1β, G-CSF and KC levels were determined by ELISA (R&D Systems) of serum and extracts of spleens. Cytokine and chemokine levels are indicated on the ordinate as pg/ml or ng/ml of serum, and as pg/mg or ng/mg of protein in each spleen extract as determined by BCA protein assays (Pierce).
(In general: An ELISA detects its analyte on a solid surface through an enzyme-linked reagent.)

For assay [5], the system named is IL-1β, G-CSF and KC. Description: ELISA of IL-1β, G-CSF and KC in serum and spleen extracts of B6 and IL-1 receptor-1 mutant mice. In kind it is in vivo. Conditions: 40 or 160 μg oral, 8 hours. How it is done: Normal B6 mice (+/+) and congenic B6.129S7-Illr1^tmllmx mice with a targeted mutation of the IL-1 receptor-1 (−/−) were orally administered 40 or 160 μg of PT-100 or saline as indicated on the abscissae. 8-hours after PT-100 administration, IL-1β, G-CSF and KC levels were determined by ELISA of serum and extracts of spleen. Cytokine and chemokine levels are indicated on the ordinate as pg/ml or ng/ml of serum, and as pg/mg or ng/mg of protein in each spleen extract as determined by BCA protein assays.

[6] abbreviates: IL-1 receptor-1 mutant (−/−) mice.

As to `CC(C)[C@H](N)C(=O)N1CCC[C@H]1B(O)O` [PT-100, Val-boroPro], the “cytokine and chemokine gene expression in tumor and draining inguinal lymph nodes” value in assay [1] (WEHI 164 tumor mice, 2 hours after first dose on day 4 after tumor inoculation) is “selective induction of cytokine and chemokine gene expression”. The “IL-1β mRNA levels in lymph nodes” value in assay [1] (oral, 30 minutes vs 2 hours after first dose on day 4, inguinal lymph nodes draining WEHI 164 tumors) is listed as “increase in lymph nodes before those of other cytokines”. In assay [2] (athymic BALB/c (nu/nu) mice), the “tumor growth (tumor volume)” value is “significantly inhibited tumor growth”. The tumor rejection entry in assay [2] (athymic BALB/c mice, day 2 until day 20) is listed as “not observed”. For the same molecule, in assay [2] (euthymic BALB/c mice, day 2 until day 20), the “mice with tumors completely rejected by day 20” value was 40 per cent of the mice. Moreover, the “tumor growth (tumor volume)” value in assay [2] (normal euthymic BALB/c (+/+) mice) is “significantly inhibited tumor growth”. In assay [3], the “tumor growth (mean tumor volume)” value is given as “significantly (p<0.05) inhibited tumor growth”. In assay [4] (serum), the “G-CSF levels in serum” value is “increased in both spleen and serum”; the IL-1β serum levels entry is given as “without increasing serum levels”; the “KC levels in serum” value is “increased in both spleen and serum”. For the same molecule, in assay [4] (spleen extract), the “G-CSF levels in spleen” value was “increased in both spleen and serum”; the “IL-1β levels in spleen tissue” value was “increases IL-1β levels in spleen tissue”; the “KC levels in spleen” value was “increased in both spleen and serum”. Further, in assay [5] (IL-1 receptor-1 mutant (−/−) mice compared to normal B6 mice), the “IL-1β levels in the spleen” value is “could still increase IL-1β levels in the spleen; but the magnitude of the response was greatly reduced”. For the same molecule, in assay [5] (setting [6]), the “serum G-CSF levels” value is reported as “essentially unaffected”, the “serum KC levels” value is “essentially unaffected”, the “splenic G-CSF levels” value is reported as “essentially unaffected” and the “splenic KC levels” value was “essentially unaffected”.

Turning to “Rituxan: human CD20-specific antibody (anti-CD20 mAb rituximab) [reference compound]”, in assay [3], the “tumor growth (mean tumor volume)” value is reported as “significantly (p<0.05) inhibited tumor growth”.
